{"source": "patent US11617356B2", "about": "“Mouse lymphoma cell line and animal model of human high grade B-cell lymphoma” (PÉCSI TUDOMÁNYEGYETEM, priority 2015, dated 2023)", "tested_on": "Bc-DLFL.1 cells", "assay": "short-term in vitro survival of Bc-DLFL.1 cells on addition of recombinant BAFF", "assay_type": "cell-based, mouse", "conditions": "addition of recombinant BAFF to culture; data not shown", "description": "The specific conditions needed to propagate Bc-DLFL.1 raised the dependence of this lymphoma for tissue-derived factors for survival. The most likely candidates are the different receptors for BAFF. […] In normal B-cell development, TACI and BCMA is expressed following activation during plasmacytic differentiation, while BAFF-R disappears. BAFF-R is more characteristic of mature resting B-cells."}
{"substance": "recombinant BAFF: recombinant BAFF, ligand of BAFF-R, BCMA and TACI, added to Bc-DLFL.1 cells in vitro", "values": [{"measurement": "short-term in vitro survival of Bc-DLFL.1 cells", "result": "moderately increased"}]}
